Source: patent US6525001B1, “Substituted pyrimidine and pyridine herbicides” (Mid-American Commercialization Corporation, priority 1997, dated 2003)

Key:
Type in all cases: in vivo
[1] = tested on: ivyleaf morningglory (Ipomoea hederacea); assay: Test C; parameters: key: 0 was no effect; 100 was complete control
[2] = tested on: barnyardgrass (Echinochloa crus-galli); assay: Test C
[3] = tested on: cocklebur (Xanthium strumarium); assay: Test C; parameters: key: 0 was no effect; 100 was complete control
[4] = tested on: johnson grass (Sorghum halepense); assay: Test E pre-/postemergence/post directed
Outline: (§1)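 Greenhouse pot-grown plants; compound in non-phytotoxic solvent with surfactant applied preemergence to soil within one day of planting, postemergence at two to four leaf stage (three to twenty cm), or post-directed to plant base and soil. Visual injury rated 13 to 21 days after application, 0 (none) to 100 (complete control).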

[5] = tested on: alexandergrass (Brachiaria plantaginea); assay: Test E pre-/postemergence/post directed
Outline: as §1

[6] = tested on: Spanishneedles (Bidens bipinnata); assay: Test E pre-/postemergence/post directed
Outline: as §1

[7] = tested on: common ragweed (Ambrosia elatior); assay: Test E pre-/postemergence/post directed
Outline: as §1

[8] = tested on: surinam grass (Brachiaria decumbens); assay: Test E pre-/postemergence/post directed
Outline: as §1

[9] = tested on: common groundsel (Senecio vulgaris); assay: Test E pre-/postemergence/post directed
Outline: as §1

[10] = tested on: pitted morningglory (Ipomoea lacunosa); assay: Test E pre-/postemergence/post directed
Outline: as §1

[11] = tested on: itchgrass (Rottboellia exaltata); assay: Test E pre-/postemergence/post directed
Outline: as §1

[12] = tested on: sandbur (Cenchrus echinatus); assay: Test E pre-/postemergence/post directed; details: PREEMERGENCE
Outline: as §1

[13] = tested on: large crabgrass (Digitaria sanguinalis); assay: Test E pre-/postemergence/post directed
Outline: as §1

[14] = tested on: bermudagrass (Cynodon dactylon); assay: Test E pre-/postemergence/post directed
Outline: as §1

[15] = tested on: johnsongrass (Sorghum halepense); assay: Test C
[16] = tested on: velvetleaf (Abutilon theophrasti); assay: Test C; parameters: key: 0 was no effect; 100 was complete control
corn (Zea mays) = assay: Test C; parameters: key: 0 was no effect; 100 was complete control
[17] = tested on: ladysthumb smartweed (Polygonum persicaria); assay: Test C
[18] = tested on: purple nutsedge (Cyperus rotundus); assay: Test E pre-/postemergence/post directed; parameters: key: 0 is no injury; 100 is complete control
Outline: as §1

[19] = tested on: hairy beggarticks (Bidens pilosa); assay: Test C
[20] = tested on: purple nutsedge (Cyperus rotundus); assay: Test C; parameters: key: 0 was no effect; 100 was complete control

Cc1cnc(-c2ccc(C(F)(F)F)cc2)nc1Cn1ccc(C(F)(F)F)n1 [compound 9]
Plant response rating, I. morningglory ([1]; POSTEMERGENCE, Rate 35 g/ha): 50 | Plant response rating, I. morningglory ([1]; POSTEMERGENCE, Rate 70 g/ha): 60 | Plant response rating, I. morningglory ([1]; POSTEMERGENCE, Rate 140 g/ha): 100 | Plant response rating, I. morningglory ([1]; PREEMERGENCE, Rate 35 g/ha): 20 | Plant response rating, I. morningglory ([1]; PREEMERGENCE, Rate 70 g/ha): 50 | Plant response rating, I. morningglory ([1]; PREEMERGENCE, Rate 140 g/ha): 50 | Plant response rating, Barnyardgrass ([2]; POSTEMERGENCE, Rate 35 g/ha): 10 | Plant response rating, Barnyardgrass ([2]; POSTEMERGENCE, Rate 70 g/ha): 25 | Plant response rating, Barnyardgrass ([2]; POSTEMERGENCE, Rate 140 g/ha): 25 | Plant response rating, Barnyardgrass ([2]; PREEMERGENCE, Rate 35 g/ha): 10 | Plant response rating, Barnyardgrass ([2]; PREEMERGENCE, Rate 70 g/ha): 50 | Plant response rating, Barnyardgrass ([2]; PREEMERGENCE, Rate 140 g/ha): 50 | Plant response rating, Cocklebur ([3]; POSTEMERGENCE, Rate 35 g/ha): 60 | Plant response rating, Cocklebur ([3]; POSTEMERGENCE, Rate 70 g/ha): 80 | Plant response rating, Cocklebur ([3]; POSTEMERGENCE, Rate 140 g/ha): 80 | Plant response rating, Cocklebur ([3]; PREEMERGENCE, Rate 35 g/ha): 0 | Plant response rating, Cocklebur ([3]; PREEMERGENCE, Rate 70 g/ha): 0 | Plant response rating, Cocklebur ([3]; PREEMERGENCE, Rate 140 g/ha): 0 | Plant response rating, Johnsongrass ([4]; POSTEMERGENCE, Rate 125 g/ha): 85 | Plant response rating, Johnsongrass ([4]; POSTEMERGENCE, Rate 250 g/ha): 85 | Plant response rating, Johnsongrass ([4]; PREEMERGENCE, Rate 32 g/ha): 55 | Plant response rating, Johnsongrass ([4]; PREEMERGENCE, Rate 64 g/ha): 75 | Plant response rating, Johnsongrass ([4]; PREEMERGENCE, Rate 125 g/ha): 85 | Plant response rating, Johnsongrass ([4]; PREEMERGENCE, Rate 250 g/ha): 90 | Plant response rating, Alexandergrass ([5]; POSTEMERGENCE, Rate 125 g/ha): 10 | Plant response rating, Alexandergrass ([5]; POSTEMERGENCE, Rate 250 g/ha): 10 | Plant response rating, Alexandergrass ([5]; PREEMERGENCE, Rate 32 g/ha): 30 | Plant response rating, Alexandergrass ([5]; PREEMERGENCE, Rate 64 g/ha): 65 | Plant response rating, Alexandergrass ([5]; PREEMERGENCE, Rate 125 g/ha): 65 | Plant response rating, Spanishneedles ([6]; POSTEMERGENCE, Rate 125 g/ha): 10 | Plant response rating, Spanishneedles ([6]; POSTEMERGENCE, Rate 250 g/ha): 15 | Plant response rating, Spanishneedles ([6]; PREEMERGENCE, Rate 64 g/ha): 20 | Plant response rating, Spanishneedles ([6]; PREEMERGENCE, Rate 125 g/ha): 30 | Plant response rating, Spanishneedles ([6]; PREEMERGENCE, Rate 250 g/ha): 60 | Plant response rating, Com. ragweed ([7]; POSTEMERGENCE, Rate 125 g/ha): 10 | Plant response rating, Com. ragweed ([7]; POSTEMERGENCE, Rate 250 g/ha): 10 | Plant response rating, Com. ragweed ([7]; PREEMERGENCE, Rate 32 g/ha): 10 | Plant response rating, Com. ragweed ([7]; PREEMERGENCE, Rate 125 g/ha): 98 | Plant response rating, Surinam grass ([8]; POSTEMERGENCE, Rate 125 g/ha): 10 | Plant response rating, Surinam grass ([8]; POSTEMERGENCE, Rate 250 g/ha): 10 | Plant response rating, Surinam grass ([8]; PREEMERGENCE, Rate 64 g/ha): 10 | Plant response rating, Surinam grass ([8]; PREEMERGENCE, Rate 125 g/ha): 20 | Plant response rating, Com. groundsel ([9]; POSTEMERGENCE, Rate 125 g/ha): 25 | Plant response rating, Com. groundsel ([9]; POSTEMERGENCE, Rate 250 g/ha): 30 | Plant response rating, Com. groundsel ([9]; PREEMERGENCE, Rate 32 g/ha): 98 | Plant response rating, P. morninglory ([10]; POSTEMERGENCE, Rate 125 g/ha): 40 | Plant response rating, P. morninglory ([10]; POSTEMERGENCE, Rate 250 g/ha): 50 | Plant response rating, P. morninglory ([10]; PREEMERGENCE, Rate 32 g/ha): 45 | Plant response rating, P. morninglory ([10]; PREEMERGENCE, Rate 64 g/ha): 60 | Plant response rating, P. morninglory ([10]; PREEMERGENCE, Rate 125 g/ha): 75 | Plant response rating, Itchgrass ([11]; POSTEMERGENCE, Rate 125 g/ha): 30 | Plant response rating, Itchgrass ([11]; POSTEMERGENCE, Rate 250 g/ha): 30 | Plant response rating, Itchgrass ([11]; PREEMERGENCE, Rate 64 g/ha): 85 | Plant response rating, Sandbur ([12]; Rate 125 g/ha): 10 | Plant response rating, Sandbur ([12]; Rate 250 g/ha): 20 | Plant response rating, Large crabgrass ([13]; POSTEMERGENCE, Rate 125 g/ha): 5 | Plant response rating, Large crabgrass ([13]; POSTEMERGENCE, Rate 250 g/ha): 10 | Plant response rating, Large crabgrass ([13]; PREEMERGENCE, Rate 32 g/ha): 70 | Plant response rating, Bermudagrass ([14]; POSTEMERGENCE, Rate 125 g/ha): 10 | Plant response rating, Bermudagrass ([14]; POSTEMERGENCE, Rate 250 g/ha): 10 | Plant response rating, Bermudagrass ([14]; PREEMERGENCE, Rate 32 g/ha): 70 | Plant response rating, Bermudagrass ([14]; PREEMERGENCE, Rate 64 g/ha): 98 | Plant response rating, Johnsongrass ([15]; POSTEMERGENCE, Rate 35 g/ha): 10 | Plant response rating, Johnsongrass ([15]; POSTEMERGENCE, Rate 140 g/ha): 50 | Plant response rating, Johnsongrass ([15]; PREEMERGENCE, Rate 35 g/ha): 65 | Plant response rating, Johnsongrass ([15]; PREEMERGENCE, Rate 70 g/ha): 85 | Plant response rating, Johnsongrass ([15]; PREEMERGENCE, Rate 140 g/ha): 95 | Plant response rating, Velvetleaf ([16]; POSTEMERGENCE, Rate 35 g/ha): 10 | Plant response rating, Velvetleaf ([16]; POSTEMERGENCE, Rate 70 g/ha): 70 | Plant response rating, Velvetleaf ([16]; POSTEMERGENCE, Rate 140 g/ha): 90 | Plant response rating, Velvetleaf ([16]; PREEMERGENCE, Rate 35 g/ha): 75 | Plant response rating, Velvetleaf ([16]; PREEMERGENCE, Rate 70 g/ha): 95 | Plant response rating, Velvetleaf ([16]; PREEMERGENCE, Rate 140 g/ha): 100 | Plant response rating, Corn (corn (Zea mays); POSTEMERGENCE, Rate 35 g/ha): 10 | Plant response rating, Corn (corn (Zea mays); POSTEMERGENCE, Rate 70 g/ha): 15 | Plant response rating, Corn (corn (Zea mays); POSTEMERGENCE, Rate 140 g/ha): 15 | Plant response rating, Corn (corn (Zea mays); PREEMERGENCE, Rate 35 g/ha): 0 | Plant response rating, Corn (corn (Zea mays); PREEMERGENCE, Rate 70 g/ha): 5 | Plant response rating, Corn (corn (Zea mays); PREEMERGENCE, Rate 140 g/ha): 10 | Plant response rating, Ladysthumb ([17]; POSTEMERGENCE, Rate 35 g/ha): 20 | Plant response rating, Ladysthumb ([17]; POSTEMERGENCE, Rate 70 g/ha): 30 | Plant response rating, Ladysthumb ([17]; POSTEMERGENCE, Rate 140 g/ha): 30 | Plant response rating, Ladysthumb ([17]; PREEMERGENCE, Rate 35 g/ha): 35 | Plant response rating, Ladysthumb ([17]; PREEMERGENCE, Rate 70 g/ha): 85 | Plant response rating, Ladysthumb ([17]; PREEMERGENCE, Rate 140 g/ha): 90 | Plant response rating, Purple nutsedge ([18]; POSTEMERGENCE, Rate 125 g/ha): 0 | Plant response rating, Purple nutsedge ([18]; POSTEMERGENCE, Rate 250 g/ha): 0 | Plant response rating, Purple nutsedge ([18]; PREEMERGENCE, Rate 32 g/ha): 0 | Plant response rating, Purple nutsedge ([18]; PREEMERGENCE, Rate 64 g/ha): 0 | Plant response rating, Purple nutsedge ([18]; PREEMERGENCE, Rate 125 g/ha): 0 | Plant response rating, Purple nutsedge ([18]; PREEMERGENCE, Rate 250 g/ha): 0 | Plant response rating, H. beggarticks ([19]; POSTEMERGENCE, Rate 35 g/ha): 65 | Plant response rating, H. beggarticks ([19]; POSTEMERGENCE, Rate 70 g/ha): 70 | Plant response rating, H. beggarticks ([19]; POSTEMERGENCE, Rate 140 g/ha): 80 | Plant response rating, H. beggarticks ([19]; PREEMERGENCE, Rate 35 g/ha): 85 | Plant response rating, H. beggarticks ([19]; PREEMERGENCE, Rate 70 g/ha): 85 | Plant response rating, H. beggarticks ([19]; PREEMERGENCE, Rate 140 g/ha): 85 | Plant response rating, Purple nutsedge ([20]; POSTEMERGENCE, Rate 35 g/ha): 5 | Plant response rating, Purple nutsedge ([20]; POSTEMERGENCE, Rate 70 g/ha): 5 | Plant response rating, Purple nutsedge ([20]; POSTEMERGENCE, Rate 140 g/ha): 5 | Plant response rating, Purple nutsedge ([20]; PREEMERGENCE, Rate 35 g/ha): 0 | Plant response rating, Purple nutsedge ([20]; PREEMERGENCE, Rate 70 g/ha): 0 | Plant response rating, Purple nutsedge ([20]; PREEMERGENCE, Rate 140 g/ha): 0
